Assay results as given in patent US20040152739A1, “Acyclic pyrazole compounds for the inhibition of mitogen activated protein kinase-activated protein kinase-2” (priority 2002, published 2004).
Structures can show the parent of a compound that is named as a salt.

molecular target: MK-2 (Homo sapiens, UniProt P49137); assay: Determination of MK-2 IC50 (anion exchange resin capture assay, HSP-peptide phosphorylation); type: biochemical; details: read-out: MK-2 Avg. IC50
Sequence (P49137 whole entry, species assumed): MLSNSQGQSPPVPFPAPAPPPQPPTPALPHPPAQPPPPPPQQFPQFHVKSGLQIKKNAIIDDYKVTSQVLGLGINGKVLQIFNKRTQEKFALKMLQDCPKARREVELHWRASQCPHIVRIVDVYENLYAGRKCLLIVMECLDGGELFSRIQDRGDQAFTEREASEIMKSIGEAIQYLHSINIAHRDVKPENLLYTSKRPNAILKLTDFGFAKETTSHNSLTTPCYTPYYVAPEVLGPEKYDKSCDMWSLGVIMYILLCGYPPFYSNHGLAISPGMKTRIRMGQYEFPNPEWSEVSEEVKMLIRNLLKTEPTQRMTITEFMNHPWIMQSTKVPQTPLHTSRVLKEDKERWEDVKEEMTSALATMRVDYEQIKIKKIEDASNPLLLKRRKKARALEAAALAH
Description: The phosphorylation of HSP-peptide ([sequence]) by MAPKAPK2 was measured using an anion exchange resin capture assay method. […] The reaction was terminated and [γ^33P]ATP was removed from solution by the addition of 150 μl of AG 1×8 ion exchange resin in 900 mM sodium formate pH 3.0. A 50 μl aliquot of head volume was removed from the quenched reaction mixture and added to a 96-well plate, 150 μl of Microscint-40 (Packard) was added and the amount of phosphorylated-peptide was determined. Allow the Microscint to sit in the plates for 60 minutes prior to counting.
Compounds are evaluated as potential inhibitors of the MK2 kinase by measuring their effects on MK2 phosphorylation of the peptide substrate. Compounds may be screened initially at two concentrations prior to determination of IC50 values. Screening results are expressed as percent inhibition at the concentrations of compound tested. For IC50 value determinations, compounds are tested at six concentrations in ten-fold serial dilutions with each concentration tested in triplicate. Results are expressed as IC50 values in micromolar. The assay is performed at a final concentration of 2% DMSO.
Compounds are evaluated as potential inhibitors of the MK-2 kinase by measuring their effects on MK-2 phosphorylation of the peptide substrate. Compounds may be screened initially at two concentrations prior to determination of IC50 values. Screening results are expressed as percent inhibition at the concentrations of compound tested. For IC50 value determinations, compounds are tested at six concentrations in ten-fold serial dilutions with each concentration tested in triplicate. Results are expressed as IC50 values in micromolar. The assay is performed at a final concentration of 2% DMSO.

| Molecule | IC50 [nM] |
| --- | --- |
| 2-[2-(2H-1,2,3-triazol-2-yl)pyridin-4-yl]-6,7- dihydropyrazolo[1,5-a]pyrazin-4(5H)-one compound with 2-[2-(1H-1,2,3-triazol-1- yl)pyridin-4-yl]-6,7-dihydropyrazolo[1,5- a]pyrazin-4(5H)-one (1:1) [Example 109] | 5210 |
| NCCn1nc(-c2ccnc(-c3cnc4ccccc4c3)c2)cc1C(=O)O [Example 1, dihydrochloride] | 26.9 |
| NCCCn1nc(-c2ccnc(-c3cccc([N+](=O)[O-])c3)c2)cc1C(=O)O [Example 2, dihydrochloride] | 39.7 |
| NCC1Cn2nc(-c3ccnc(-c4cnc5ccccc5c4)c3)cc2C(=O)N1 (stereo not drawn) [Example 3, trifluoroacetate] | 47.7 |
| O=C1NC(CO)Cn2nc(-c3ccnc(-c4cnc5ccccc5c4)c3)cc21 (stereo not drawn) [Example 6] | 61.5 |
| NCCCn1nc(-c2ccnc(-c3cnc4ccccc4c3)c2)cc1C(=O)O [Example 7] | 68.6 |
| NCCCn1nc(-c2ccnc(-c3ccc(O)cc3)c2)cc1C(=O)O [Example 8] | 102 |
| NCCn1nc(-c2ccnc(-c3cccc([N+](=O)[O-])c3)c2)cc1C(=O)O [Example 9] | 109 |
| CN(C)c1ccc(-c2cc(-c3cc(C(=O)O)n(CCN)n3)ccn2)cc1 [Example 10] | 117 |
| NCCn1nc(-c2ccnc(-c3ccc(OC(F)(F)F)cc3)c2)cc1C(=O)O [Example 11] | 161 |
| COc1ccc(-c2cc(-c3cc(C(=O)O)n(CCN)n3)ccn2)cc1 [Example 12, trifluoroacetate] | 168 |
| O=C1NCCn2nc(-c3ccnc(-c4cccc([N+](=O)[O-])c4)c3)cc21 [Example 13, dihydrochloride] | 171 |
| O=C1NCCn2nc(-c3ccnc(-c4ccc5ccncc5c4)c3)cc21 [Example 14] | 194 |
| COc1ccc(-c2cc(-c3cc(C(=O)O)n(CCCN)n3)ccn2)cc1 [Example 15, trifluoroacetate] | 196 |
| O=C1NCCn2nc(-c3ccnc(-c4ccc5[nH]ncc5c4)c3)cc21 [Example 16] | 199 |
| O=C1NCCn2nc(-c3ccnc(/C=C/c4cccnc4)c3)cc21 [Example 18, dihydrochloride] | 212 |
| O=C1NCCn2nc(-c3ccnc(-c4cnc5ccccc5c4)c3)cc21 [Example 19, dihydrochloride] | 216 |
| COc1cccc(-c2cc(-c3cc(C(=O)O)n(CCN)n3)ccn2)c1 [Example 20, dihydrochloride] | 217 |
| O=C1NCCn2nc(-c3ccnc(-c4ccc5ncccc5c4)c3)cc21 [Example 23, dihydrochloride] | 298 |
| O=C(O)c1cc(-c2ccnc(/C=C/c3ccccc3)c2)nn1CCCNCCc1ccc(Br)cc1 [Example 25, trifluoroacetate] | 315 |
| COc1ccc(-c2cc(-c3cc4n(n3)CCNC4=O)ccn2)cc1 [Example 26, dihydrochloride] | 318 |
| O=C1NCCn2nc(-c3ccnc(/C=C/c4ccccc4)c3)cc21 [Example 28] | 371 |
| O=C1NCCn2nc(-c3ccnc(-c4ccc(Cl)s4)c3)cc21 [Example 29] | 444 |
| COc1ccc(-c2cc(-c3cc4n(n3)CCNC4=O)ccn2)cc1F [Example 30] | 471 |
| Cn1ccc2cc(-c3cc(-c4cc5n(n4)CCNC5=O)ccn3)ccc21 [Example 32] | 479 |
| O=C1NCCn2nc(-c3ccnc(-c4cccc(F)c4)c3)cc21 [Example 33, hydrochloride] | 505 |
| O=C1NCCn2nc(-c3ccnc(-c4cccc(O)c4)c3)cc21 [Example 35, trifluoroacetate] | 520 |
| O=C1NCCn2nc(-c3ccnc(-c4ccc5c(c4)CCO5)c3)cc21 [Example 36, trifluoroacetate] | 521 |
| O=C1NCCn2nc(-c3ccnc(-c4ccc5occc5c4)c3)cc21 [Example 37, trifluoroacetate] | 543 |
| O=C1Cc2cc(-c3cc(-c4cc5n(n4)CCNC5=O)ccn3)ccc2N1 [Example 38, trifluoroacetate] | 554 |
